One assay concerns Cochliobolus miyabeanus. Kind of assay: Field assessment of Cochliobolus miyabeanus (COCHMI, brown spot) in rice. As to conditions: for Percent Control (AUDPC), Panicle: panicles; for Percent Control (AUDPC), Plot: whole plot foliage.
A further assay has as its system Pyricularia oryzae. The assay is classed as in vivo. As to conditions: 2 sprays, rice field.
The test system of assay [1] is Gaeumannomyces graminis var. graminis. Kind of assay: Field assessment of Gaeumannomyces graminis var. graminis (GAEUGR) in rice. The assay is classed as in vivo. The source says:
The applications were made as preventative treatments, with no infection at the time of application. The first symptoms of […] were observed after three applications.

A further assay concerns Rhizoctonia solani. As to the kind of experiment: Field assessment of Rhizoctonia solani (RHIZSO, sheath blight) in rice. The assay is classed as in vivo. To be noted: 2 sprays. How it is done: The experimental plots were inoculated with Rhizoctonia solani_2 days after the first application at growth stage BBCH 59 of rice.
Disease infection percentage was calculated as (lesion lengths)/(total sheath lengths)×100% on 6 plants per plot randomly. Sheath blight infection was assessed three times, 7 days after application A (DAAA) plus 7 and 14 DAAB. The disease infection was recorded following EPPO PP1/26 guideline prescriptions.

Where [2] appears, read: 100 g ai/ha, Adjuvant A (Agnique BP-420) 0.2% v/v.
Where [3] appears, read: 150 g ai/ha, Adjuvant A (Agnique BP-420) 0.3% v/v.
The mark [4] stands for this setting: 125 g ai/ha, commercial standard.

The structures appear in SMILES notation. Where two headings read alike, the source gives them in different places.

Procedure for Cochliobolus miyabeanus: The applications were made as early curative treatments, with the first application coming at the vegetative stage (50 to 70 DAP; max tillering to booting). The treatments were part of an experimental trial designed as a randomized complete block with four replications and a plot of approximately 5×2 m.
Disease assessments were made every seven days until three weeks after the second application. Disease severity was recorded as a percentage of visual diseased foliage on whole plot and as a percentage of visual infection on the rice panicles. Area under the disease progress curve (AUDPC) was calculated for each plot using the sets of recorded severity data. Relative AUDPC (% control based on AUDPC) was calculated as percent of the nontreated control. Also included in the study is the effect on efficacy of the addition of two adjuvants at varied rates: Agnique BP-420 (50% w/w) at rates from 0.05% to 0.3%; and Agnique BP-420 (50% w/w) plus MSO (methylated seed oil) at rates from 0.25% to 0.75%.

As for `N#Cc1ccc(Oc2ccc(C(F)(F)C(O)(Cn3ncnc3S)c3ccc(F)cc3F)nc2)cc1` (stereo not drawn) [Compound I, 4-((6-(2-(2,4-difluorophenyl)-1,1-difluoro-2-hydroxy-3-(5-mercapto-1H-1,2,4-triazol-1-yl)propyl)pyridin-3-yl)oxy)benzonitrile], the “% Control (AUDPC of visual infection on the plant)” value in the assay with Cochliobolus miyabeanus (50 g ai/ha, Adjuvant A (Agnique BP-420) 0.05% v/v) was “B (51-75)”; in the assay on Cochliobolus miyabeanus (50 g ai/ha, Adjuvant A (Agnique BP-420) 0.1% v/v), “B (51-75)”; in the assay on Cochliobolus miyabeanus (50 g ai/ha, Adjuvant A (Agnique BP-420) 0.15% v/v), “B (51-75)”; in the assay on Cochliobolus miyabeanus (50 g ai/ha, Adjuvant B (Agnique BP-420 + MSO) 0.25% v/v) it was “B (51-75)”; in the assay with Cochliobolus miyabeanus (50 g ai/ha, Adjuvant B (Agnique BP-420 + MSO) 0.5% v/v) it was “B (51-75)”; in the assay on Cochliobolus miyabeanus (50 g ai/ha, Adjuvant B (Agnique BP-420 + MSO) 0.75% v/v) it was “B (51-75)”. Moreover, the “% Control (AUDPC of visual infection on the plant)” value in the assay on Cochliobolus miyabeanus (50 g ai/ha, adjuvant None) is listed as “C (26-50)”; in the assay with Cochliobolus miyabeanus (setting [2]), “B (51-75)”; in the assay on Cochliobolus miyabeanus (setting [3]), “A (76-100)”; in assay [1] (100 g ai/ha, Adjuvant A (Agnique BP-420) 0.1% v/v) it was “B (51-75)”; in assay [1] (setting [2]), “B (51-75)”; in assay [1] (100 g ai/ha, Adjuvant A (Agnique BP-420) 0.3% v/v), “B (51-75)”. Besides, the “% Control (AUDPC of visual infection on the plant)” value was “B (51-75)” in assay [1] (100 g ai/ha, Adjuvant B (Agnique BP-420 + MSO) 0.5% v/v); “B (51-75)” in assay [1] (100 g ai/ha, Adjuvant B (Agnique BP-420 + MSO) 1.0% v/v); “B (51-75)” in assay [1] (100 g ai/ha, Adjuvant B (Agnique BP-420 + MSO) 1.5% v/v); “C (26-50)” in assay [1] (100 g ai/ha, adjuvant None); “B (51-75)” in assay [1] (setting [3]); “A (76-100)” in assay [1] (200 g ai/ha, Adjuvant A (Agnique BP-420) 0.4% v/v). Further, the “Percent Control (AUDPC), Panicle” value is listed as “C (26-50)” in the assay with Cochliobolus miyabeanus (50 g ai/ha, […]); “C (26-50)” with Cochliobolus miyabeanus (75 g ai/ha, […]); “C (26-50)” with Cochliobolus miyabeanus (100 g ai/ha, […]); “B (51-75)” in the assay with Cochliobolus miyabeanus (125 g ai/ha, […]); “B (51-75)” in the assay on Cochliobolus miyabeanus (150 g ai/ha, […]). Further, the “Percent Control (AUDPC), Plot” value was “C (26-50)” in the assay on Cochliobolus miyabeanus (50 g ai/ha, […]); “C (26-50)” in the assay with Cochliobolus miyabeanus (75 g ai/ha, […]); “C (26-50)” in the assay with Cochliobolus miyabeanus (100 g ai/ha, […]); “C (26-50)” in the assay on Cochliobolus miyabeanus (125 g ai/ha, […]); “B (51-75)” with Cochliobolus miyabeanus (150 g ai/ha, […]). Besides, the “Disease (% Control) PYRIOR, based on AUDPC” value with Pyricularia oryzae (50 g ai/ha) is “C (26-50)”; in the assay with Pyricularia oryzae (100 g ai/ha), “B (51-75)”; in the assay with Pyricularia oryzae (150 g ai/ha), “A (76-100)”; in the assay with Pyricularia oryzae (200 g ai/ha) it was “A (76-100)”. Moreover, the “Disease (% Control) RHIZSO, based on AUDPC” value was “D (1-25)” in the assay with Rhizoctonia solani (50 g ai/ha), “C (26-50)” with Rhizoctonia solani (100 g ai/ha), “C (26-50)” in the assay on Rhizoctonia solani (150 g ai/ha) and “B (51-75)” in the assay with Rhizoctonia solani (200 g ai/ha).
For the molecule `N#CC(CCc1ccc(Cl)cc1)(Cn1cncn1)c1ccccc1` (stereo not drawn) [Fenbuconazole, reference compound], the “% Control (AUDPC of visual infection on the plant)” value in assay [1] (144 g ai/ha, adjuvant Inex-A 0.15% v/v) is recorded as “B (51-75)”.
For `CCCC1COC(Cn2cncn2)(c2ccc(Cl)cc2Cl)O1` (stereo not drawn) [Propiconazole, reference compound], in the assay on Cochliobolus miyabeanus (setting [4]), the “Percent Control (AUDPC), Panicle” value is recorded as “B (51-75)” and the “Percent Control (AUDPC), Plot” value is on record as “B (51-75)”.

Values taken from US20190297889A1, “USE OF A DIFLUORO-(2-HYDROXYPROPYL)PYRIDINE COMPOUND AS A FUNGICIDE FOR CONTROL OF PHYTOPATHOGENIC FUNGI OF RICE” (Dow AgroSsciences LLC, priority 2016, published 2019).
